In patent publication US20240109917A1 (ACTELION PHARMACEUTICALS LTD, priority 2020, published 2024) one finds IC50 data, which are given here for nine molecules.

One experiment addresses PDGFRβ (Rattus norvegicus (Rat), UniProt Q05030). Put plainly: PDGFRβ Cellular Assay (PDGFRb P-Y751 HTRF in A10 cells stimulated with PDGF-BB). It counts as cell-based. The note with it: read-out: PDGFR Cellular IC50. The gist of the method:
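Phospho-Y751 PDGFRβ was measured by HTRF in lysates of A10 rat cells. Cells received compound for 3 hours before PDGF-BB stimulation (100 ng/mL working stock).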
(In general: TR-FRET usually uses a lanthanide donor and a delayed reading to cut background.)

Experiment [1] deals with His6-TEV-PDGFRβ (557-1016) (Homo sapiens (Human), UniProt P09619). Put plainly: PDGFRβ HTRF Assay. In kind it is biochemical. The note with it: read-out: PDGFR HTRF IC50. The gist of the method: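 HTRF KinEASE-TK readout (665/620 nm ratio) of TK-biotin substrate phosphorylation by His-tagged PDGFRβ kinase domain. Enzyme and inhibitor preincubated 30 min, then ATP/substrate added for 3 h at room temperature before 60 min EDTA quench/detection.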
Sequence of His6-TEV-PDGFRβ (557-1016) (P09619 557-1016): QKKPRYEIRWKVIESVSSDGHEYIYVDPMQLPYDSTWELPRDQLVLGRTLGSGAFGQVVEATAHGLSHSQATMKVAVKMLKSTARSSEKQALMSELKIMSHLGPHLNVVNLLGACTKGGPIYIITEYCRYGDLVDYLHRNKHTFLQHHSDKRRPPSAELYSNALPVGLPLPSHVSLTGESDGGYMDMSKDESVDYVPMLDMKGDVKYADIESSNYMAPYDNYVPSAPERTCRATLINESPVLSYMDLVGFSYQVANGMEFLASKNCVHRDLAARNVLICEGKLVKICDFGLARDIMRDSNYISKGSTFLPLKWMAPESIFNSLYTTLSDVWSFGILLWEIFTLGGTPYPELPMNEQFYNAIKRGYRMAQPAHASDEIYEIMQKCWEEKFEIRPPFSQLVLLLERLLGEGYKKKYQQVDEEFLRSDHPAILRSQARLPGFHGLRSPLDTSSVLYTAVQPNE

The target in experiment [2] is Tb-labeled inactive PDGFRβ (Homo sapiens (Human), UniProt P09619). Put plainly: PDGFRβ LanthaScreen Assay. It counts as binding. The note with it: read-out: PDGFR Lantha IC50.
Sequence of Tb-labeled inactive PDGFRβ (P09619 33-1106): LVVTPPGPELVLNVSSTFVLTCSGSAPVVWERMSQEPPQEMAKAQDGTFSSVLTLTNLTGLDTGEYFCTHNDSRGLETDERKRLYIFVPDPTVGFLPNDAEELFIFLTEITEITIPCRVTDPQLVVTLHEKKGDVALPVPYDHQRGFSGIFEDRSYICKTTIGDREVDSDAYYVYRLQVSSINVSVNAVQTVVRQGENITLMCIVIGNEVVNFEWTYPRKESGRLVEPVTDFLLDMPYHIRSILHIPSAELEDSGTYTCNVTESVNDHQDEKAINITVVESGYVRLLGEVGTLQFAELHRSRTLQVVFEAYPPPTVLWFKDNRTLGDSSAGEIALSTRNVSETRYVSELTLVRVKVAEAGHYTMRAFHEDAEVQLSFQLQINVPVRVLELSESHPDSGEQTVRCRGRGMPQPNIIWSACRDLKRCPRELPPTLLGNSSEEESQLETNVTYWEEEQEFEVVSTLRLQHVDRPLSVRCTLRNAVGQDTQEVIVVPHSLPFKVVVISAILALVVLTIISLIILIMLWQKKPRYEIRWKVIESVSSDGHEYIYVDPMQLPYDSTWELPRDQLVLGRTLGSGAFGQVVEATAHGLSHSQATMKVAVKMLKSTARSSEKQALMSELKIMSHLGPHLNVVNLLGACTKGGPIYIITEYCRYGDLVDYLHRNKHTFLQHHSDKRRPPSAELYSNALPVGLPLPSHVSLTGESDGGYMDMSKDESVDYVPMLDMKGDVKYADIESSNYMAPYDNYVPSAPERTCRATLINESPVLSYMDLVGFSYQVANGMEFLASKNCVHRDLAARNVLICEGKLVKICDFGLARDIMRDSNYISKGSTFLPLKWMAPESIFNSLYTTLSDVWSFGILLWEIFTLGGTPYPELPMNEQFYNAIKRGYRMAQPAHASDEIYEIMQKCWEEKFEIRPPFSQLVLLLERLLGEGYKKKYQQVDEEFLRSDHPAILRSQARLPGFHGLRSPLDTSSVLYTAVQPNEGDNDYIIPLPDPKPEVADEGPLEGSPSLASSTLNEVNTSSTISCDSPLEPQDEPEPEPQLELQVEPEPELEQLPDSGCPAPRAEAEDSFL

Sequence of PDGFRβ (Q05030 32-1097): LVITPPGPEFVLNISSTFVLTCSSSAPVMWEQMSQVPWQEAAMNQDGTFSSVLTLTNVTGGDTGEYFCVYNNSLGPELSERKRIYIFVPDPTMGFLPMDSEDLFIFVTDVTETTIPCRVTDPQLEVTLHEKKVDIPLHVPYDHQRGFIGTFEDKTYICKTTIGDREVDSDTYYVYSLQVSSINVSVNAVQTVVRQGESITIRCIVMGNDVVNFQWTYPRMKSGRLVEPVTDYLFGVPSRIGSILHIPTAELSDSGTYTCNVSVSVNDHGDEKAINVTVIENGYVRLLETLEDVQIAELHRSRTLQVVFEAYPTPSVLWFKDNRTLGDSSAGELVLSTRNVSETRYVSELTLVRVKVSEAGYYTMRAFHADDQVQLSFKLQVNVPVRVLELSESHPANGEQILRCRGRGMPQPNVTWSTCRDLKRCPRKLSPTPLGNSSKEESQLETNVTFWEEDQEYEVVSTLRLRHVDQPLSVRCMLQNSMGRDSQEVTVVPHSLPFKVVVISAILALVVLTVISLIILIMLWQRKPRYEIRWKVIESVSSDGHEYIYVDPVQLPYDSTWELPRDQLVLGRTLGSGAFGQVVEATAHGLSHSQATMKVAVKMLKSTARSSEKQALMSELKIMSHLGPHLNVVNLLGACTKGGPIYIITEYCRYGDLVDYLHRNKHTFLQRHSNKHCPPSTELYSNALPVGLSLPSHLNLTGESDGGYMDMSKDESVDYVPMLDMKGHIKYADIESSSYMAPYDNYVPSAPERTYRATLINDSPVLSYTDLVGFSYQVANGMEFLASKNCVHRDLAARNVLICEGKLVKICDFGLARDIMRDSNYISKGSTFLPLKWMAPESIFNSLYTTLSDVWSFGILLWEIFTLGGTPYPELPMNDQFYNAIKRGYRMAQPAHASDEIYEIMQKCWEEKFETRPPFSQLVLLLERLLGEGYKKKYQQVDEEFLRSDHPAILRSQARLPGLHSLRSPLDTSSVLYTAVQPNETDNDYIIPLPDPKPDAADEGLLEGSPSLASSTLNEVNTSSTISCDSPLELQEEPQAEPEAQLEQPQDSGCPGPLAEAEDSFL

Broadly, the IC50 is the concentration that gives 50% inhibition. Regarding `Cc1ncc(C(=O)NC2CN(C(C)(C)C)C2)cc1NC(=O)c1cnn2cc(-c3cccc4c3cnn4C)sc12` [Example 238, N-(5-((1-(tert-butyl)azetidin-3-yl)carbamoyl)-2-methylpyridin-3-yl)-2-(1-methyl-1H-indazol-4-yl)pyrazolo[5,1-b]thiazole-7-carboxamide], the IC50 at PDGFRβ is 181 nM; in experiment [1] it was 0.4 nM; in experiment [2] it was 7.5 nM.

In the case of `Cc1ncc(NC(=O)OCCN(C)C2CCCCC2)cc1NC(=O)c1cnn2cc(-c3cnn(C)c3)sc12` [Example 251, 2-(cyclohexyl(methyl)amino)ethyl (6-methyl-5-(2-(1-methyl-1H-pyrazol-4-yl)pyrazolo[5,1-b]thiazole-7-carboxamido)pyridin-3-yl)carbamate], the figures for the IC50 (on PDGFRβ; in experiment [1]; in experiment [2]) were 28.4 nM, 1.5 nM and 33.6 nM, respectively.

Turning to `Cc1ncc(C(=O)NCCN2CCCC2(C)C)cc1NC(=O)c1cnn2cc(-c3cccc4c3cnn4C)sc12` [Example 240, N-(5-((2-(2,2-dimethylpyrrolidin-1-yl)ethyl)carbamoyl)-2-methylpyridin-3-yl)-2-(1-methyl-1H-indazol-4-yl)pyrazolo[5,1-b]thiazole-7-carboxamide], the values for the IC50 (on PDGFRβ; in experiment [1]; in experiment [2]) were 11.8 nM, 0.3 nM and 2 nM, respectively.

On to `Cc1cc(C(=O)NCCN2CCC3(CCC3)CC2)sc1NC(=O)c1cnn2cc(-c3cnn(C)c3)sc12` [Example 203, N-(5-((2-(7-azaspiro[3.5]nonan-7-yl)ethyl)carbamoyl)-3-methylthiophen-2-yl)-2-(1-methyl-1H-pyrazol-4-yl)pyrazolo[5,1-b]thiazole-7-carboxamide], for which the IC50 came to 449 nM at PDGFRβ, 25 nM in experiment [1] and 1060 nM in experiment [2].

For the molecule `Cc1ncc(C(=O)NCCN2CCCC2)cc1NC(=O)c1cnn2cc(-c3cn(C)nc3C(F)(F)F)sc12` [Example 227, 2-(1-Methyl-3-(trifluoromethyl)-1H-pyrazol-4-yl)-N-(2-methyl-5-((2-(pyrrolidin-1-yl)ethyl)carbamoyl)pyridin-3-yl)pyrazolo[5,1-b]thiazole-7-carboxamide], the values for the IC50 (at PDGFRβ; in experiment [1]; in experiment [2]) were 438 nM, 0.9 nM and 21.3 nM, respectively.

As to `Cc1ncc(NC(=O)OCCN2CC3CCC2C3)cc1NC(=O)c1cnn2cc(-c3cnn(C)c3)sc12` (stereo not drawn) [Example 250, 2-(2-azabicyclo[2.2.1]heptan-2-yl)ethyl (6-methyl-5-(2-(1-methyl-1H-pyrazol-4-yl)pyrazolo[5,1-b]thiazole-7-carboxamido)pyridin-3-yl)carbamate], the IC50 is 299 nM at PDGFRβ, 1.4 nM in experiment [1] and 75.2 nM in experiment [2].

As to `Cc1ncc(C(=O)NCCN2CCCC23CCC3)cc1NC(=O)c1cnn2cc(-c3c(C)nn(C)c3C)sc12` [Example 214, N-(5-((2-(5-azaspiro[3.4]octan-5-yl)ethyl)carbamoyl)-2-methylpyridin-3-yl)-2-(1,3,5-trimethyl-1H-pyrazol-4-yl)pyrazolo[5,1-b]thiazole-7-carboxamide], the IC50 on PDGFRβ amounted to 3.9 nM; in experiment [1] it was 0.3 nM; in experiment [2], 1.8 nM.

As to `Cc1cc(C(=O)NCCN2CCCC2(C)C)sc1NC(=O)c1cnn2cc(-c3cncnc3)sc12` [Example 185, N-(5-((2-(2,2-dimethylpyrrolidin-1-yl)ethyl)carbamoyl)-3-methylthiophen-2-yl)-2-(pyrimidin-5-yl)pyrazolo[5,1-b]thiazole-7-carboxamide], the IC50 on PDGFRβ was 42.6 nM; in experiment [1] it was 704 nM; in experiment [2], over 3000 nM.

Take `Cc1ncc(NC(=O)CN2CCc3cnn(C)c3C2)cc1NC(=O)c1cnn2cc(-c3cnn(C)c3)sc12` [Example 17, 2-(1-methyl-1H-pyrazol-4-yl)-N-(2-methyl-5-(2-(1-methyl-4,5-dihydro-1H-pyrazolo[3,4-c]pyridin-6 (7H)-yl)acetamido)pyridin-3-yl)pyrazolo[5,1-b]thiazole-7-carboxamide]: the IC50 on PDGFRβ worked out at 69.5 nM; in experiment [1], 0.5 nM; in experiment [2], 6 nM.
